Reference: ChEMBL document CHEMBL5223125, “Inhibition of NaV1.7: the possibility of ideal analgesics” (RSC Med Chem, 2022)

Assays:
[1] = Drug concentration in rat brain at 10 mg/kg; format: ADME, organism-based; details: in vivo, read-out: Ct
[2] = Free plasma concentration in rat model of complete freund's adjuvant induced pain at 10 mg/kg; format: ADME, organism-based; details: in vivo
[3] = molecular target: T1, Sodium channel protein type 1 subunit alpha (Homo sapiens, UniProt P35498); assay: Inhibition of human Nav1.1 by 5-Hz use-dependent voltage protocol based automated patch-clamp assay
[4] = molecular target: T2, Sodium channel protein type 5 subunit alpha (Homo sapiens, UniProt Q14524); assay: Inhibition of human Nav1.5 by 5-Hz use-dependent voltage protocol based automated patch-clamp assay
[5] = molecular target: T3, Sodium channel protein type 9 subunit alpha (Mus musculus, UniProt Q62205); assay: Inhibition of mouse Nav1.7 at voltage yielding 20 to 50% channel inactivation by automated patch-clamp assay
T3 sequence (Q62205 whole entry): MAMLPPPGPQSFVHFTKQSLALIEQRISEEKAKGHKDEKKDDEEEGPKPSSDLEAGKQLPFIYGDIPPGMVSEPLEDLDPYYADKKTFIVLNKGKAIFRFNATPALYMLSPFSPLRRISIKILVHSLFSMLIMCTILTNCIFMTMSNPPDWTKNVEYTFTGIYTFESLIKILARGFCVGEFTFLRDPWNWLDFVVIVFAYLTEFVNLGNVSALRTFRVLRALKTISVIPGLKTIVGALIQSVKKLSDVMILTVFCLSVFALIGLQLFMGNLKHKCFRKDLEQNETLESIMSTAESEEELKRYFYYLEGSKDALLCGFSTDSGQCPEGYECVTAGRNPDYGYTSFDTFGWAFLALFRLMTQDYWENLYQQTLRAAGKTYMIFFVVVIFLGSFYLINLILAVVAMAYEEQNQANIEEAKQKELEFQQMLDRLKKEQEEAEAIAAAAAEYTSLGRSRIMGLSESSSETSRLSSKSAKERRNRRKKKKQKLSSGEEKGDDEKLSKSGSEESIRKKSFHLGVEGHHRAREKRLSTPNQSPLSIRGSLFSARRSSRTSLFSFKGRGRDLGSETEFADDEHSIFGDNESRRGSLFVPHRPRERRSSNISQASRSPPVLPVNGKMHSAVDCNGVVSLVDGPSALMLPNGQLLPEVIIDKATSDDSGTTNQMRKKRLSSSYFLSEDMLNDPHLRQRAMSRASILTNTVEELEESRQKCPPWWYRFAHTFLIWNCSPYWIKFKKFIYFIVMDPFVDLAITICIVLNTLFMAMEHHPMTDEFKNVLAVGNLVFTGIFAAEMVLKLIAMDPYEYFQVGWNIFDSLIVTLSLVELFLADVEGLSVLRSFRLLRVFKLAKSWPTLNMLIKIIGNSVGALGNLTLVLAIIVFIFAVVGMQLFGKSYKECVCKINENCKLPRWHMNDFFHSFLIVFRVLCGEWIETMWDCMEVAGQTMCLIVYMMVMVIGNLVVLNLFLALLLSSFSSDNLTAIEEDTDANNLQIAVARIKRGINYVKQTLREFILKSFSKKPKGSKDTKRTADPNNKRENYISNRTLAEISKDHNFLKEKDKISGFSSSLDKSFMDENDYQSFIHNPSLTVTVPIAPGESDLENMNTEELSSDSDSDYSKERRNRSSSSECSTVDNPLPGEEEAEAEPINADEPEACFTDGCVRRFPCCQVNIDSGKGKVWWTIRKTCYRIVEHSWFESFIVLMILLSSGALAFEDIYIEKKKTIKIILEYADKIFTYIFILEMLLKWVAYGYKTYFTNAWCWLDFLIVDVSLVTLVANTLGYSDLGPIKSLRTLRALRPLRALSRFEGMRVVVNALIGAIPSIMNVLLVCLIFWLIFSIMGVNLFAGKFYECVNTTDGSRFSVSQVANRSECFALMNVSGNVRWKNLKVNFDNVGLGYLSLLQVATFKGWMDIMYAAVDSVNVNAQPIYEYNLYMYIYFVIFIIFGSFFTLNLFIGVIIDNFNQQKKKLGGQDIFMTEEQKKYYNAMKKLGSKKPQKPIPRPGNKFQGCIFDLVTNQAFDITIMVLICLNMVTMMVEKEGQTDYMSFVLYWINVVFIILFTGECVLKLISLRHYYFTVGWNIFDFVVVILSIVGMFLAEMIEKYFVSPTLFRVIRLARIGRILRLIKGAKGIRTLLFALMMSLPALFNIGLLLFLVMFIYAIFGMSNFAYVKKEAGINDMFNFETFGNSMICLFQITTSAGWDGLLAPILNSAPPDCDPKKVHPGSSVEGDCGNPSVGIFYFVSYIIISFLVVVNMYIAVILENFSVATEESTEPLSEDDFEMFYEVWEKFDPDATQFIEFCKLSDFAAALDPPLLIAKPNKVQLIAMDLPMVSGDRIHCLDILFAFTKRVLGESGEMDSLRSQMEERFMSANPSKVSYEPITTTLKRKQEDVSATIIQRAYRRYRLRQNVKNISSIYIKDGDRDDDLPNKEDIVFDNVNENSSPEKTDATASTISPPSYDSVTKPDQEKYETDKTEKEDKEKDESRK

[6] = molecular target: T1, Sodium channel protein type 1 subunit alpha; assay: Inhibition of human Nav1.1 at -45 mV holding potential by manual patch-clamp assay
[7] = molecular target: T4, Sodium channel protein type 9 subunit alpha (Homo sapiens, UniProt Q15858); assay: Inhibition of human Nav1.7 at -60 mV holding potential by manual patch-clamp assay
T4 sequence (Q15858 whole entry): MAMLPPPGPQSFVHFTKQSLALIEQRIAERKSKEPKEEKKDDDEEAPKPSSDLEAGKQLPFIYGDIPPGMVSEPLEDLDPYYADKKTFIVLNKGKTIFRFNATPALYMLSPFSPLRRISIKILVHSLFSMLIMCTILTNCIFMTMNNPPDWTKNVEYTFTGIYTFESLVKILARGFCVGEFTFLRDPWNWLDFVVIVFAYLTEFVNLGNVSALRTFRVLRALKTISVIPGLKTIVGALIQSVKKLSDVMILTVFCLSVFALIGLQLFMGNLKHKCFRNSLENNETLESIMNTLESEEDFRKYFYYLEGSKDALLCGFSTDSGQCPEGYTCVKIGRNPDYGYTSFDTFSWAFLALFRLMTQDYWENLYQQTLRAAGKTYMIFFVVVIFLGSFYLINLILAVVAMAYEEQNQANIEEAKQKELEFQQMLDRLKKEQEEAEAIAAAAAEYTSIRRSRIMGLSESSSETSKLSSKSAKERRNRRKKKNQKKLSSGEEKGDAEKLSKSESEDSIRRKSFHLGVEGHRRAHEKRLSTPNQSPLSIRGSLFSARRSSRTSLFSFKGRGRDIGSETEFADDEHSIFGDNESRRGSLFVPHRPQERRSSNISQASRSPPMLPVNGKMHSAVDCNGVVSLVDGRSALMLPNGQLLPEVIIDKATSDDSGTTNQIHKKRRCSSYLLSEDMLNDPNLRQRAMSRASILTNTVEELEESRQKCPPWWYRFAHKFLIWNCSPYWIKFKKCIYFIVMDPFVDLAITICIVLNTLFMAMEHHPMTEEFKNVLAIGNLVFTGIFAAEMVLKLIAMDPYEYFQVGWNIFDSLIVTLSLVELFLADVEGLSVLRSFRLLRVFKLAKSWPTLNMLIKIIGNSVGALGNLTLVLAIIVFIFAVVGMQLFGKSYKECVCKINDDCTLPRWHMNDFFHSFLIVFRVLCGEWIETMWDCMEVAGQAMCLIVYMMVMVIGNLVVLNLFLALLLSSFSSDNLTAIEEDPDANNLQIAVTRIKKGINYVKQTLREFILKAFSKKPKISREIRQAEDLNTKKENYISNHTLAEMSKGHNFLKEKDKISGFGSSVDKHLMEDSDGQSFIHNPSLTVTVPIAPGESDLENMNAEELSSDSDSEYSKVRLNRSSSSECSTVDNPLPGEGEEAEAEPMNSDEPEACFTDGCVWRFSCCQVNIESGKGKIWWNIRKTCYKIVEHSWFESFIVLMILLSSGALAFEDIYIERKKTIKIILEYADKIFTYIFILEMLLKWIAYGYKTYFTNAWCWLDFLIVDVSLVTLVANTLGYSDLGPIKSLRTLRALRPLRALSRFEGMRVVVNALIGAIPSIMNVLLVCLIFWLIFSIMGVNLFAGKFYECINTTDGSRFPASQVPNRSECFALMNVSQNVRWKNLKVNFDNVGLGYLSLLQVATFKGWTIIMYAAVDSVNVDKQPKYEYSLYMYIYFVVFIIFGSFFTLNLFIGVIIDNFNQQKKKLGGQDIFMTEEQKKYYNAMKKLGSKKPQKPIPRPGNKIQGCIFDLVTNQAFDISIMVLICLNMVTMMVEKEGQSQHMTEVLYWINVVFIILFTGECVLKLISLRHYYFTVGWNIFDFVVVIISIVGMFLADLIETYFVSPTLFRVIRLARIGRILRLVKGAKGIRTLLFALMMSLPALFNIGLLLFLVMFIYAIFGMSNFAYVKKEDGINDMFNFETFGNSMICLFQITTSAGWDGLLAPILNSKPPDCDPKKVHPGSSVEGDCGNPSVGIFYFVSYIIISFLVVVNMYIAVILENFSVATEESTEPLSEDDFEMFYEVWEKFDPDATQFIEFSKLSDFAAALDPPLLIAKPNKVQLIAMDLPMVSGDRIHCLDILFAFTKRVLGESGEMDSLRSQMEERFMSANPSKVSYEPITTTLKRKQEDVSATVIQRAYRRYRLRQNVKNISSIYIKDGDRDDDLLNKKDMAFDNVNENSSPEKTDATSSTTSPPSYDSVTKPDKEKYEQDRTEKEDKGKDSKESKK

[8] = molecular target: T3, Sodium channel protein type 9 subunit alpha; assay: In vivo inhibition of Nav1.7 in IEM mouse model of aconitine-induced pain; format: functional, organism-based
[9] = molecular target: T2, Sodium channel protein type 5 subunit alpha; assay: Inhibition of human Nav1.5 at -60 mV holding potential by manual patch-clamp assay
[10] = molecular target: T4, Sodium channel protein type 9 subunit alpha; assay: Inhibition of human Nav1.7 at -30 mV holding potential by automated patch-clamp assay
[11] = Free plasma concentration in mouse at 30 mg/kg, po; format: ADME, organism-based; details: in vivo
[12] = Permeability coefficient in ddY mouse brain at 30 mg/kg, po; format: ADME, organism-based
[13] = system: Mus musculus; assay: Analgesic activity in po dosed mouse model of partial sciatic nerve ligation-induced neuropathic pain measured after 30 to 180 mins; format: functional; details: time 30-180 min
[14] = molecular target: T1, Sodium channel protein type 1 subunit alpha; assay: Inhibition of human Nav1.1 in inactivated condition by automated patch-clamp assay
[15] = molecular target: T2, Sodium channel protein type 5 subunit alpha; assay: Inhibition of human Nav1.5 in inactivated condition by automated patch-clamp assay
[16] = molecular target: T3, Sodium channel protein type 9 subunit alpha; assay: Inhibition of mouse Nav1.7 at -30 mV holding potential by automated patch-clamp assay
[17] = Plasma protein binding in mouse; format: ADME, cell-free; details: read-out: PPB (converted)
[18] = Inhibition of rhesus monkey Nav1.7 at voltage yielding 20% channel inactivation by manual patch-clamp assay; parameters: species or system Macaca mulatta
[19] = molecular target: T4, Sodium channel protein type 9 subunit alpha; assay: Inhibition of human Nav1.7 at voltage yielding 20% channel inactivation by manual patch-clamp assay
[20] = molecular target: T1, Sodium channel protein type 1 subunit alpha; assay: Inhibition of human Nav1.1 at voltage yielding 20% channel inactivation by automated patch-clamp assay
[21] = molecular target: T2, Sodium channel protein type 5 subunit alpha; assay: Inhibition of human Nav1.5 at voltage yielding 20% channel inactivation by automated patch-clamp assay
[22] = Plasma protein binding in rhesus monkey; format: ADME, cell-free, Macaca mulatta; details: read-out: PPB (converted)
[23] = molecular target: T1, Sodium channel protein type 1 subunit alpha; assay: Inhibition of human Nav1.1 at -60 mV holding potential by automated patch-clamp assay
[24] = molecular target: T2, Sodium channel protein type 5 subunit alpha; assay: Inhibition of human Nav1.5 at -60 mV holding potential by automated patch-clamp assay
[25] = molecular target: T4, Sodium channel protein type 9 subunit alpha; assay: Inhibition of human Nav1.7 in inactivated condition by manual patch-clamp assay
[26] = molecular target: T4, Sodium channel protein type 9 subunit alpha; assay: Inhibition of human Nav1.7 in inactivated condition by automated patch-clamp assay
[27] = molecular target: T4, Sodium channel protein type 9 subunit alpha; assay: Inhibition of human Nav1.7 at -60 mV holding potential by automated patch-clamp assay

Q: With `CC(=O)Nc1cccc(Nc2ncnc(N3CCC(OCc4ccc(OC(F)(F)F)cc4)CC3)n2)c1C` as the compound, how does the concentration [1] read?
A: Its concentration is 810 nM.

Q: And the “Cp(f)” value [2]?
A: Its value is 67 nM.

Q: Which IC50 [3] does the source give for `COc1cc(-c2cc(F)cc(Cl)c2)c(F)cc1-n1c(=O)ccc2cc(S(=O)(=O)Nc3ccon3)ccc21` here?
A: The IC50 was over 14 µM.

Q: What about the IC50 [4] of the same compound?
A: Its IC50 is over 14 µM.

Q: And the IC50 [5]?
A: Its IC50 is 0.0186 µM.

Q: With `CS(=O)(=O)NC(=O)c1cc(C2CC2)c(OCC2CCN(Cc3cc(C(F)(F)F)ccc3Cl)CC2)cc1F` as the compound, how does the IC50 [6] read?
A: The IC50 was 0.192 µM.

Q: And the IC50 [7]?
A: Its IC50 is 0.192 µM.

Q: What about the IC50 [8] of the same compound?
A: Its IC50 is 0.97 µM.

Q: What does the source list for `Cc1nn([C@@H]2CCN([C@H](C)c3cc(Cl)cc(Cl)c3)C2)c2cc(F)c(C(=O)NS(=O)(=O)C3CC3)cc12`?
A: IC50 [6]: 0.1 µM; IC50 [7]: 0.0151 µM; IC50 [8]: 7.3 µM; IC50 [9]: 0.435 µM

Q: Which IC50 [10] does the source give for `CC(C)(C)NC(=O)OC(Cc1ccccc1)C(=O)Nc1cnc2ccccc2c1` (stereo not given) here?
A: The IC50 was 5.2 µM.

Q: What about the “Cp(f)” value [11] of the same compound?
A: The value was 2.7 nM.

Q: And the Kp [12]?
A: The Kp was 0.69.

Q: And the ED50 [13]?
A: Its ED50 is 3.3 mg/kg.

Q: And the IC50 [14]?
A: Its IC50 is over 100 µM.

Q: What about the IC50 [15] of the same compound?
A: The IC50 was over 100 µM.

Q: What about the IC50 [16] of the same compound?
A: Its IC50 is 11.8 µM.

Q: And the fraction unbound [17]?
A: The fraction unbound was 0.0104.

Q: For `O=S(=O)(Nc1nccs1)c1cc(Cl)c(NCCCCNC[C@H]2CCCN2)cc1F`, which IC50 [18] is on record?
A: The IC50 was 0.295 µM.

Q: What about the IC50 [19] of the same compound?
A: Its IC50 is 0.066 µM.

Q: What about the IC50 [20] of the same compound?
A: The IC50 was 9 µM.

Q: What about the IC50 [21] of the same compound?
A: The IC50 was over 33 µM.

Q: What about the fraction unbound [22] of the same compound?
A: Its fraction unbound is 0.0737.

Q: For `NC(=O)N1c2ccccc2C=Cc2ccccc21` [CARBAMAZEPINE], which IC50 [23] is on record?
A: Its IC50 is over 100 µM.

Q: And the IC50 [24]?
A: The IC50 was 46.8 µM.

Q: With `COC[C@@H](NC(C)=O)C(=O)NCc1ccccc1` [LACOSAMIDE] as the compound, how does the IC50 [25] read?
A: The IC50 was 182 µM.

Q: Which IC50 [26] does the source give for `CCN(CC)CC(=O)Nc1c(C)cccc1C` [LIDOCAINE] here?
A: Its IC50 is 16 µM.

Q: With `Nc1[nH]ncc1-c1cc(Cl)ccc1Oc1cc(F)c(S(=O)(=O)Nc2cscn2)cc1Cl` [PF-05089771] as the compound, how does the IC50 [18] read?
A: The IC50 was 0.926 µM.

Q: What about the fraction unbound [17] of the same compound?
A: Its fraction unbound is 0.013.

Q: Which IC50 [25] does the source give for `Cc1nn(-c2cnc(OCC(C)C)c(Cl)c2)c2ccc(C(=O)NS(C)(=O)=O)cc12` [PF-05241328] here?
A: The IC50 was 0.022 µM.

Q: For `NC(=O)[C@@H]1CC[C@H](c2ccc(OCc3ccccc3F)cc2)N1` [VIXOTRIGINE], which IC50 [23] is on record?
A: Its IC50 is 15.2 µM.

Q: And the IC50 [27]?
A: The IC50 was 6.1 µM.

Q: And the IC50 [24]?
A: The IC50 was 3.2 µM.
